A short description of data set [1]: Antigenicity by indirect ELISA of serum after repeated administration. The format is in vivo. The following applies: 0.25 mg/kg subcutaneous twice daily for 29 days, mouse serum. As to the method: In order to investigate whether an antibody to native CNP-22 or chimeric CNP (B) was produced using serum collected from the mice after completion of repeated administration for four weeks in Example 4, antigenicity of each of them was evaluated by means of an indirect ELISA. A peptide solution (100 μL) adjusted to 1.0 ng/μL using 50 mM of […] at pH 8.5 was added to a 96-well plate (manufactured by Nalge Nunc International; Denmark) treated with Maxisoap and subjected to a coating operation overnight at 4° C. A blocking was carried out at room temperature for 1 hour using a 2.0% Block Ace (manufactured by Snow Brand Milk). […] After washing the wells, an anti-mouse IgG HRPAb (manufactured by Zymed Laboratories, U.S.A.) was added thereto. The antigen-antibody reaction was conducted for 1 hour at room temperature, then the wells were washed and a substrate ABTS (manufactured by KPL, U.S.A.) was added thereto.

Data set [2] addresses T1, neutral endopeptidase (NEP) (Homo sapiens, UniProt P08473).
T1 construct: purchased R&D Systems, Inc., U.S.A
As to the kind of experiment: Resistance to peptidase: stability to hNEP (HPLC residual rate). In kind it is in vitro ADME. The following applies: human, isolated enzyme neprilysin; hNEP, 37° C., 1 hour, 0.5 μg/mL, 20 mM MES pH 6.5, mean of N = 2; read-out: Residual Rate. As to the method:
(§1) The experiment was conducted in N=2 for each sample. Native CNP-22, chimeric CNP (A, B) (structure mentioned already; final concentration: 0.5 μg/mL) and 100 μL of reaction solution (medium: 20 mM MES, pH 6.5) of human type recombinant neutral endopeptidase (hNEP, manufactured by R&D Systems, Inc., U.S.A.) were prepared. […] Distilled water (100 μL) was added to the sample after boiling followed by well mixing and 50 μL thereof was analyzed in a water-acetonitrile system using a high-performance liquid chromatography system LC-10A (manufactured by Shimadzu). The analytical data were analyzed by a Chromato-Pack (CRA-10A, manufactured by Shimadzu) and area of the peak zone of unchanged substance was calculated. The area of average zone of unchanged substance when made to react at 37° C. was divided by the area of average zone of the boiled sample to calculate the residual rate of the unchanged substance after 1 hour.

In data set [3] the target is T2, human type recombinant neutral endopeptidase (hNEP) (Homo sapiens, UniProt P08473).
T2 construct: purchased R&D Systems, Inc., U.S.A
T2 sequence (P08473 whole entry): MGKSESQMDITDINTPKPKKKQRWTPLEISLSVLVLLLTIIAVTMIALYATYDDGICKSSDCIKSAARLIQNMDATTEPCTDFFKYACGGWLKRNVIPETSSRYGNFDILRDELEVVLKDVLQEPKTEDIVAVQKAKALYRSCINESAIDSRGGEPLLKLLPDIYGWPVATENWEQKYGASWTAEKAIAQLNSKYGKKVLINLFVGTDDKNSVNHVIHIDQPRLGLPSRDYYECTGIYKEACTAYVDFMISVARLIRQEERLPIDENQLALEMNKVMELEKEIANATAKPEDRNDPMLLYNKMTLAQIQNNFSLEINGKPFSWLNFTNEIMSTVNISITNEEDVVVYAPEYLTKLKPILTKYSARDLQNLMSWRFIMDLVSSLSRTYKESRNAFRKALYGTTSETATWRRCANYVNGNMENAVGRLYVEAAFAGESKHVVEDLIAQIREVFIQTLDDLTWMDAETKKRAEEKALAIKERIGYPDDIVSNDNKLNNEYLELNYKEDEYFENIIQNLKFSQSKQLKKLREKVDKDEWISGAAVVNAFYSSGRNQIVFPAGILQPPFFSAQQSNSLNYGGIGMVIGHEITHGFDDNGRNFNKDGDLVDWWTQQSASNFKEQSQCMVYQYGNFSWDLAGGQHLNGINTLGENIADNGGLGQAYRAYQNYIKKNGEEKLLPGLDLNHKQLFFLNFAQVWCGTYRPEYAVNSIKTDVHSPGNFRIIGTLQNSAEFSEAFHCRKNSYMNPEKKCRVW
The data set is described as above. The format is in vitro ADME. The following applies: hNEP, 37° C., 1 hour, 0.5 μg/mL, 20 mM MES pH 6.5, mean of N = 2. The protocol: as §1

The nature of data set [4]: CNP immunoreactivity concentration in plasma, half-life after intravenous administration (Example 7). The following applies: male, SD, rat, in vivo, 10 nmol/kg. The protocol:
The experiment was carried out using rats into which polyethylene tube (PE-50 manufactured by Clay Adams) was previously inserted into thigh artery under an anesthetized condition with Nembutal. As to a test system, male SD strain rats (Nippon Charles River) of 7 weeks age were used where one group comprised 3 rats. Native CNP-22 or chimeric CNP in a dose of 10 nmol/kg was administered into tail vein of the rat and the blood before the administration and until 60 minutes after the administration was collected by a polyethylene tube inserted into the thigh artery. To the collected blood were added EDTA (manufactured by Dojin Laboratories) and aprotinin (manufactured by Bayer) as a stabilizer and an anti-coagulant, respectively and the plasma was separated therefrom by centrifugal separation. CNP immunoreactivity concentration in plasma was measured by a competitive radioimmunoassay (RIA). At that time, a rabbit polyclonal antibody (#2) which specifically recognizes the ring partial structure of the native CNP-22 was used as an antibody and, as a labeled compound, ^125I-[Tyr^0] CNP was used.

Data set [5] in a line: Comparison of half-life in plasma of native CNP-22, native CNP-53 and chimeric CNP (Example 12). The following applies: male, SD, rat, in vivo, iv, 20 nmol/kg, T½ Mean Value, intravenous, male rats, N = 3. As to the method:
Changes in CNP immunoreactivity concentration in plasma when the native CNP-22 shown by SEQ ID No: 101 was administered either solely or jointly with neutral endo-peptidase (NEP) inhibitor and compared with changes in CNP immunoreactivity concentration in plasma when native CNP-53 (SEQ ID No: 159) and the chimeric CNP (D) (structure mentioned already) were intravenously administered.
The experiment was conducted using rats where polyethylene tube (PE-50, manufactured by Clay Adams) was previously inserted into thigh artery under the anesthetized condition with Nembutal. In the group where the native CNP-22 was administered either solely or jointly with an NEP inhibitor, the polyethylene tube (PE-10, manufactured by Clay Adams) was also inserted into the thigh vein. As to a test system, male SD rats (Nippon Charles River) of 7 weeks age were used where one group comprised three rats. As to the NEP inhibitor, DL-Thiorphan (manufactured by Sigma) was used and, during the period from 10 minutes before the initiation of administration of the native CNP-22 until 60 minutes after the initiation of the administration where collection of the blood finished, 5% mannitol (100 μL/min/body) or NEP inhibitor (30 μg/100 μL/min/body) was subjected to a constant-speed intravenous administration for 70 minutes using an Infusion Pump (CFV 2100, manufactured by Nippon Koden K. K.). Native CNP-22, native CNP-53 or chimeric CNP (D) was administered into tail vein in a dose of 20 nmol/kg each and blood over the time from before administration and 60 minutes after administration was collected from a polyethylene tube inserted into the thigh artery. To the collected blood were added EDTA (Dojin Laboratories) and aprotinin (manufactured by Bayer) as a stabilizer and an anti-coagulant, respectively and the plasma was separated by means of centrifugal separation. CNP immunoreactivity concentration in the plasma was measured by a competitive radioimmunoassay (RIA). At that time, a rabbit polyclonal antibody (#2) which specifically recognizes a ring part structure which is the common structure for native CNP-22 and native CNP-53 was used as an antibody while, as a labeling compound, ^125I-[Tyr^0] CNP-22 was used.

Data set [6] in a line: CNP immunoreactivity concentration in plasma, half-life after intravenous administration (Example 9). The following applies: male, SD, rat, in vivo, 20 nmol/kg.

Here are results for one compound from patent US8551937B2, “Peptide having an extending action for half-life of object peptide in plasma” (priority 2008, dated 2013).

T1 sequence (P08473 whole entry): as above

A word on the half-life: it is the time needed for the level to fall by half in the phase considered. Low values mean fast loss, high ones slow loss. For the compound `CC[C@H](C)[C@@H]1NC(=O)[C@H](CCCNC(=N)N)NC(=O)[C@H](CC(=O)O)NC(=O)[C@H](CC(C)C)NC(=O)[C@H](CCCCN)NC(=O)[C@H](CC(C)C)NC(=O)CNC(=O)[C@H](Cc2ccccc2)NC(=O)[C@@H](NC(=O)CNC(=O)[C@H](CCCCN)NC(=O)[C@H](CO)NC(=O)[C@H](CC(C)C)NC(=O)CN)CSSC[C@@H](C(=O)O)NC(=O)CNC(=O)[C@H](CC(C)C)NC(=O)CNC(=O)[C@H](CO)NC(=O)[C@H](CCSC)NC(=O)[C@H](CO)NC(=O)CNC1=O` [Native CNP-22], the antibody value result in data set [1] is reported as “no rise”. The remaining at 1 h, 0.5 μg/mL in data set [2] is 16.7%. Also, in data set [3], the “Residual Rate” value is 16.7%. Moreover, the half-life in data set [4] was determined as 4.34 min; in data set [5] (Joint Use with NEP Inhibitor: no) it was 1.11 min; in data set [5] (Joint Use with NEP Inhibitor: yes (DL-Thiorphan)), 16.2 min; in data set [6], 1.6 min.
